According to ChEMBL document CHEMBL1201862, “PubChem BioAssay data set” (2004):
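Five concentrations, 48 hours, 96-well plates. GI50 = concentration required for 50% inhibition of growth.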 Activity calls are given as the source filed them. Rule as the data show it: active = GI50 up to about 1.1 µM and inactive = higher.

Tests used:
Test in all cases: growth of human tumour cells (NCI), 48 h
786-0 = system: 786-0
SNB-19 = system: SNB-19
Malme-3M = system: Malme-3M
CCRF-CEM = system: CCRF-CEM
A549 = system: A549
SR = system: SR
NCI-H460 = system: NCI-H460
K562 = system: K562
RXF 393 = system: RXF 393
HL-60 = system: HL-60
OVCAR-8 = system: OVCAR-8
BT-549 = system: BT-549
HCT-15 = system: HCT-15
OVCAR-5 = system: OVCAR-5
MOLT-4 = system: MOLT-4
SK-MEL-5 = system: SK-MEL-5
HOP-92 = system: HOP-92
MDA-MB-435 = system: MDA-MB-435
COLO 205 = system: COLO 205
OVCAR-4 = system: OVCAR-4

Structure (SMILES) | GI50 (786-0) | GI50 (SNB-19) | GI50 (Malme-3M) | GI50 (CCRF-CEM) | GI50 (A549) | GI50 (SR) | GI50 (NCI-H460) | GI50 (K562) | GI50 (RXF 393) | GI50 (HL-60) | GI50 (OVCAR-8) | GI50 (BT-549) | GI50 (HCT-15) | GI50 (OVCAR-5) | GI50 (MOLT-4) | GI50 (SK-MEL-5) | GI50 (HOP-92) | GI50 (MDA-MB-435) | GI50 (COLO 205) | GI50 (OVCAR-4)
O=C(O)C(C1NCCS1)N1Cc2ccccc2C1 (stereo not given) | > 100 µM (inactive) | > 100 µM (inactive) | > 100 µM (inactive) | > 100 µM (inactive) | > 100 µM (inactive) | > 100 µM (inactive) | > 100 µM (inactive) | > 100 µM (inactive) | > 100 µM (inactive) | > 100 µM (inactive) | > 100 µM (inactive) | > 100 µM (inactive) | > 100 µM | > 100 µM (inactive) | > 100 µM (inactive) | > 100 µM (inactive) | > 100 µM (inactive) | > 100 µM (inactive) | > 100 µM (inactive) | > 100 µM (inactive)
CC(C)(Oc1ccc(Cl)cc1)C(=O)N(C(=O)N1CCC(c2ccccc2)CC1)c1ccccc1 | > 100 µM (inactive) | > 100 µM (inactive) | 25.4 µM (inactive) | 3.03 µM (inactive) | 34.5 µM (inactive) | > 100 µM (inactive) | 16 µM (inactive) | 4.2 µM (inactive) | 13.6 µM (inactive) | 1.6 µM (inactive) | 8.47 µM (inactive) | 23.4 µM (inactive) | 9.89 µM | > 100 µM (inactive) | 7.05 µM (inactive) | 4.94 µM (inactive) | > 100 µM (inactive) | > 100 µM (inactive) | 10 µM (inactive) | > 100 µM (inactive)
C=C1CC/C=C(\C)C(=O)C[C@@H]2[C@@H]1CC2(C)C [BUDDLEDIN C] | 0.975 µM (active) | 12.6 µM (inactive) | 2.48 µM (inactive) | 0.0944 µM (active) | 13.9 µM (inactive) | 0.0578 µM (active) | 2.62 µM (inactive) | 1.82 µM (inactive) | 1.85 µM (inactive) | 0.129 µM (active) | 4.7 µM (inactive) | 2.45 µM (inactive) | 0.689 µM | 9.46 µM (inactive) | 0.184 µM (active) | 2.84 µM (inactive) | 1.97 µM (inactive) | 1.43 µM (inactive) | 1.8 µM (inactive) | 0.743 µM (active)
Nc1nc(-c2cc(-c3cccc4ccccc34)nc(N)n2)cc(-c2cccc3ccccc23)n1 | > 100 µM (inactive) | > 100 µM (inactive) | > 100 µM (inactive) | > 100 µM (inactive) | > 100 µM (inactive) | > 100 µM (inactive) | > 100 µM (inactive) | > 100 µM (inactive) | > 100 µM (inactive) | > 100 µM (inactive) | > 100 µM (inactive) | > 100 µM (inactive) | > 100 µM | > 100 µM (inactive) | > 100 µM (inactive) | > 100 µM (inactive) | > 100 µM (inactive) | > 100 µM (inactive) | > 100 µM (inactive) | > 100 µM (inactive)
O=C(OCc1ccccc1)c1ccc(NCc2cc(O)ccc2O)cc1 | 1.11 µM (active) | 2.85 µM (inactive) | 1.56 µM (inactive) | 0.308 µM (active) | 3.9 µM (inactive) | 0.247 µM (active) | 3.42 µM (inactive) | 1.29 µM (inactive) | 1.07 µM (active) | 0.303 µM (active) | 1.42 µM (inactive) | 0.713 µM (active) | 1.03 µM | 3.85 µM (inactive) | 0.535 µM (active) | 1.52 µM (inactive) | 0.867 µM (active) | 1.58 µM (inactive) | 1.47 µM (inactive) | 1.39 µM (inactive)
S=C(NN=C1NCCCN1)Nc1ccccc1 | > 100 µM (inactive) | > 100 µM (inactive) | > 100 µM (inactive) | 43.3 µM (inactive) | > 100 µM (inactive) | 63.1 µM (inactive) | > 100 µM (inactive) | 99.5 µM (inactive) | > 100 µM (inactive) | 52.8 µM (inactive) | > 100 µM (inactive) | > 100 µM (inactive) | > 100 µM | > 100 µM (inactive) | 48.3 µM (inactive) | > 100 µM (inactive) | > 100 µM (inactive) | > 100 µM (inactive) | > 100 µM (inactive) | > 100 µM (inactive)
CCOC(=O)c1[nH]c(Br)c(-c2ccc(Br)cc2)c1Br | 0.445 µM (active) | 1.3 µM (inactive) | 0.38 µM (active) | 8.15 µM (inactive) | 0.863 µM (active) | 0.914 µM (active) | 5.25 µM (inactive) | 0.851 µM (active) | 1.23 µM (inactive) | 2.09 µM (inactive) | 0.527 µM (active) | 0.535 µM (active) | 0.516 µM | 2.5 µM (inactive) | 0.367 µM (active) | 0.375 µM (active) | 1.14 µM (inactive) | 0.186 µM (active) | 0.385 µM (active) | 1.3 µM (inactive)
